Biological target: T1, Elastase from porcine pancreas (Sus scrofa, UniProt P00772)
T1 construct: gene CELA1
Test: enzyme inhibition assay, p-nitroaniline release from N-succinyl-Ala-Ala-Ala-p-nitroanilide
Format: biochemical

T1 sequence (P00772 27-266): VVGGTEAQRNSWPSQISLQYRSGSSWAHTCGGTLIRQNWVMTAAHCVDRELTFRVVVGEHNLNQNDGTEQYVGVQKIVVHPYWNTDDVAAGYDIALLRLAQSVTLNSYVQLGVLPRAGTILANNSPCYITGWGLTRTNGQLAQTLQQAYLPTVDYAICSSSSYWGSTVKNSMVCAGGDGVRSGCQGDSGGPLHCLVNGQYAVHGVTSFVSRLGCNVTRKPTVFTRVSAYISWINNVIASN

## CCCCc1cs/c(=N\C(=O)c2ccc(Br)cc2)n1-c1cnc2ccccc2c1 [compound 6, (Z)-4-bromo-N-(4-butyl-3-(quinolin-3-yl)thiazol-2(3H)-ylidene)benzamide]
  IC50: 1.21 µM

— publication PMC10408170, “Synthesis, DFT and molecular docking of novel (Z)-4-bromo-N-(4-butyl-3 (quinolin-3-yl)thiazol-2(3H)-ylidene)benzamide as elastase inhibitor” (BMC Chemistry, 2023)
